Data published in US20250099467A1, “COMBINATION THERAPY FOR TREATING ABNORMAL CELL GROWTH” (Verastem, Inc., priority 2022, published 2025).

Experiments:
Type in all cases: cell-based, human
[1] = test system: CRC KRAS mutant cell lines; assay: 3D proliferation assay with synergy analysis, CRC panel; conditions: VS-6766 combined with ZN-C3 (WEE1); panel of 9 CRC KRAS mt cell lines; 3D Matrigel, 7 days, CellTiter-Glo; FIG. 1, 2
Procedure: (§1) As examples, human cancer cell lines including non-small cell lung cancer (NSCLC), colorectal cancer (CRC), ovarian cancer and endometrial cancer were grown in 3D conditions. Briefly, 96-well plates were coated with 50 μL of Matrigel (100%) and incubated at 37° C. and 5% CO2 for 30 min in order for the Matrigel to solidify. Cells were seeded in 100 μL of 2% Matrigel containing medium. After an overnight incubation (17-22 hours), cells were treated with VS-6766 (RAF/MEK clamp)+/−DDR pathway inhibitor (e.g., DDR pathway inhibitor that targets WEE1, e.g., ZN-C3) for 7 days. VS-6766 was used at 1:5 dilutions starting at 5 μM and ZN-C3 was used at 1:3 dilutions starting at 5 μM. Cell viability was measured using the cell viability CellTiter-Glo assay.
(§2) Raw data and metadata files were processed with a custom R-script for single agent and combination activity. Bliss, Loewe, Highest Single Agent (HSA) and ZIP synergy analysis were performed to generate a composite synergy score. Summary graphics and reports were saved for visualization and further analysis.

[2] = test system: NSCLC KRAS mutant cell lines; assay: 3D proliferation assay with synergy analysis, NSCLC panel; conditions: VS-6766 combined with ZN-C3 (WEE1); panel of 9 NSCLC KRAS mutant cell lines; 3D Matrigel, 7 days, CellTiter-Glo; FIG. 1, 2
Procedure: as §1, §2

[3] = test system: ovarian cancer cell lines; assay: 3D proliferation assay with synergy analysis, ovarian panel; conditions: VS-6766 combined with ZN-C3 (WEE1); panel of 12 ovarian cancer cell lines; 3D Matrigel, 7 days, CellTiter-Glo; FIG. 3, 4
Procedure: as §1, §2

[4] = test system: endometrial cancer cell lines; assay: 3D proliferation assay with synergy analysis, endometrial panel; conditions: VS-6766 combined with ZN-C3 (WEE1); panel of 6 endometrial cancer cell lines; 3D Matrigel, 7 days, CellTiter-Glo; FIG. 3, 4
Procedure: as §1, §2

Measured: synergy with ZN-C3 in reducing cell viability (composite of Bliss, Loewe, HSA and ZIP)

CNS(=O)(=O)Nc1nccc(Cc2c(C)c3ccc(Oc4ncccn4)cc3oc2=O)c1F [VS-6766]
synergistic: all assays above
